Assay results reported in the NIST ThermoML archive (doi:10.1016/j.jct.2010.05.002).
Values joined by “and” are separate entries in the source; they are usually repeats but may differ in a detail not shown here. Equal values may be shown once.

Assay: molar heat capacity at constant pressure
Details: 101.33 kPa, Vacuum adiabatic calorimetry

Cc1ccc(-c2ccccc2)cc1 [4-methylbiphenyl]
Details | molar heat capacity at constant pressure
200.03 K, Crystal 2 | 158.25 J/K/mol
201.21 K, Crystal 2 | 159.08 J/K/mol
202.67 K, Crystal 2 | 160.39 J/K/mol
204.13 K, Crystal 2 | 161.16 J/K/mol
205.59 K, Crystal 2 | 161.88 J/K/mol
207.05 K, Crystal 2 | 163.01 J/K/mol
208.5 K, Crystal 2 | 164.47 J/K/mol
209.95 K, Crystal 2 | 165.42 J/K/mol
211.41 K, Crystal 2 | 166.95 J/K/mol
212.86 K, Crystal 2 | 167.72 J/K/mol
214.31 K, Crystal 2 | 168.81 J/K/mol
215.75 K, Crystal 2 | 169.75 J/K/mol
217.19 K, Crystal 2 | 170.91 J/K/mol
218.63 K, Crystal 2 | 172.34 J/K/mol
220.07 K, Crystal 2 | 173.54 J/K/mol
221.51 K, Crystal 2 | 174.81 J/K/mol
224.33 K, Crystal 2 | 177.09 J/K/mol
225.77 K, Crystal 2 | 178.63 J/K/mol
227.21 K, Crystal 2 | 179.26 J/K/mol
228.64 K, Crystal 2 | 180.46 J/K/mol
230.07 K, Crystal 2 | 181.65 J/K/mol
231.5 K, Crystal 2 | 183.05 J/K/mol
232.92 K, Crystal 2 | 183.59 J/K/mol
234.35 K, Crystal 2 | 184.76 J/K/mol
235.77 K, Crystal 2 | 186 J/K/mol
237.2 K, Crystal 2 | 186.68 J/K/mol
238.62 K, Crystal 2 | 188.83 J/K/mol
240.04 K, Crystal 2 | 189.96 J/K/mol
241.46 K, Crystal 2 | 190.95 J/K/mol
242.88 K, Crystal 2 | 191.92 J/K/mol
245.71 K, Crystal 2 | 194.12 J/K/mol
247.06 K, Crystal 2 | 195.69 J/K/mol
248.47 K, Crystal 2 | 196.82 J/K/mol
249.87 K, Crystal 2 | 197.8 J/K/mol
251.28 K, Crystal 2 | 198.95 J/K/mol
252.68 K, Crystal 2 | 199.51 J/K/mol
254.07 K, Crystal 2 | 203.15 J/K/mol
255.46 K, Crystal 2 | 205.87 J/K/mol
256.86 K, Crystal 2 | 204.64 J/K/mol
258.26 K, Crystal 2 | 207.95 J/K/mol
259.65 K, Crystal 2 | 209.9 J/K/mol
261.05 K, Crystal 2 | 211.67 J/K/mol
262.45 K, Crystal 2 | 213.5 J/K/mol
263.84 K, Crystal 2 | 216.69 J/K/mol
265.26 K, Crystal 2 | 218.04 J/K/mol
265.74 K, Crystal 2 | 214.98 J/K/mol
266.62 K, Crystal 2 | 215.48 J/K/mol
267.35 K, Crystal 2 | 216.35 J/K/mol
268.06 K, Crystal 2 | 216.34 J/K/mol
268.77 K, Crystal 2 | 218.41 J/K/mol
269.46 K, Crystal 2 | 217.65 J/K/mol
270.14 K, Crystal 2 | 220.43 J/K/mol
270.81 K, Crystal 2 | 221.73 J/K/mol
271.48 K, Crystal 2 | 224.8 J/K/mol
272.13 K, Crystal 2 | 226.98 J/K/mol
272.79 K, Crystal 2 | 228.68 J/K/mol
273.44 K, Crystal 2 | 230.85 J/K/mol
274.09 K, Crystal 2 | 231.46 J/K/mol
274.73 K, Crystal 2 | 233.58 J/K/mol
275.38 K, Crystal 2 | 235.91 J/K/mol
276.02 K, Crystal 2 | 236.58 J/K/mol
276.54 K, Crystal 2 | 238.77 J/K/mol
277.18 K, Crystal 2 | 240.39 J/K/mol
277.82 K, Crystal 2 | 243.02 J/K/mol
278.45 K, Crystal 2 | 244.38 J/K/mol
279.09 K, Crystal 2 | 245.39 J/K/mol
279.72 K, Crystal 2 | 247.06 J/K/mol
280.35 K, Crystal 2 | 249.06 J/K/mol
280.98 K, Crystal 2 | 250.28 J/K/mol
281.61 K, Crystal 2 | 250.82 J/K/mol
282.22 K, Crystal 2 | 253.9 J/K/mol
282.84 K, Crystal 2 | 255.25 J/K/mol
283.47 K, Crystal 2 | 256.25 J/K/mol
284.09 K, Crystal 2 | 257.26 J/K/mol
284.71 K, Crystal 2 | 258.2 J/K/mol
285.32 K, Crystal 2 | 261 J/K/mol
285.94 K, Crystal 2 | 262.67 J/K/mol
286.41 K, Crystal 2 | 265.19 J/K/mol
287.03 K, Crystal 2 | 266.14 J/K/mol
287.64 K, Crystal 2 | 267.86 J/K/mol
288.24 K, Crystal 2 | 270.21 J/K/mol
289.45 K, Crystal 2 | 271.63 J/K/mol
290.05 K, Crystal 2 | 274.89 J/K/mol
290.65 K, Crystal 2 | 278.67 J/K/mol
291.25 K, Crystal 2 | 281.37 J/K/mol
291.85 K, Crystal 2 | 283.3 J/K/mol
292.44 K, Crystal 2 | 287.63 J/K/mol
293.04 K, Crystal 2 | 291.45 J/K/mol
293.63 K, Crystal 2 | 298.7 J/K/mol
294.21 K, Crystal 2 | 301.08 J/K/mol
294.8 K, Crystal 2 | 306.74 J/K/mol
295.38 K, Crystal 2 | 315.73 J/K/mol
295.81 K, Crystal 2 | 323.56 J/K/mol
296.38 K, Crystal 2 | 356.89 J/K/mol
296.78 K, Crystal 2 | 604.38 J/K/mol
298.45 K, Crystal 1 | 252.48 J/K/mol
299.16 K, Crystal 1 | 242.36 J/K/mol
299.72 K, Crystal 1 | 239.35 J/K/mol
300.27 K, Crystal 1 | 238.79 J/K/mol
300.79 K, Crystal 1 | 244.43 J/K/mol
301.28 K, Crystal 1 | 240.52 J/K/mol
301.77 K, Crystal 1 | 242.22 J/K/mol
302.25 K, Crystal 1 | 243.96 J/K/mol
302.73 K, Crystal 1 | 242.88 J/K/mol
303.21 K, Crystal 1 | 243.63 J/K/mol
303.43 K, Crystal 1 | 242.23 J/K/mol
303.9 K, Crystal 1 | 242.44 J/K/mol
304.37 K, Crystal 1 | 241.56 J/K/mol
304.84 K, Crystal 1 | 243.77 J/K/mol
305.31 K, Crystal 1 | 244.44 J/K/mol
305.78 K, Crystal 1 | 244.15 J/K/mol
306.24 K, Crystal 1 | 244.23 J/K/mol
306.7 K, Crystal 1 | 245.51 J/K/mol
307.16 K, Crystal 1 | 246.05 J/K/mol
307.62 K, Crystal 1 | 246.17 J/K/mol
308.08 K, Crystal 1 | 246.5 J/K/mol
308.53 K, Crystal 1 | 247 J/K/mol
308.98 K, Crystal 1 | 247.25 J/K/mol
309.43 K, Crystal 1 | 248.47 J/K/mol
309.88 K, Crystal 1 | 249.54 J/K/mol
310.32 K, Crystal 1 | 249.25 J/K/mol
310.48 K, Crystal 1 | 249.45 J/K/mol
310.92 K, Crystal 1 | 251.3 J/K/mol
311.36 K, Crystal 1 | 251.5 J/K/mol
312.31 K, Crystal 1 | 256.21 J/K/mol
313.97 K, Crystal 1 | 264.83 J/K/mol
314.78 K, Crystal 1 | 273.5 J/K/mol
315.57 K, Crystal 1 | 291.72 J/K/mol
321.28 K, Liquid | 289.67 J/K/mol
322.04 K, Liquid | 290.27 J/K/mol
322.79 K, Liquid | 290.67 J/K/mol
323.53 K, Liquid | 290.73 J/K/mol
324.28 K, Liquid | 291.55 J/K/mol
325.01 K, Liquid | 291.28 J/K/mol
325.74 K, Liquid | 291.46 J/K/mol
326.47 K, Liquid | 293.2 J/K/mol
327.19 K, Liquid | 292.01 J/K/mol
327.91 K, Liquid | 293.22 J/K/mol
328.27 K, Liquid | 292.87 J/K/mol
328.98 K, Liquid | 293.44 J/K/mol
329.68 K, Liquid | 293.4 J/K/mol
330.38 K, Liquid | 294.27 J/K/mol
331.07 K, Liquid | 293.42 J/K/mol
331.76 K, Liquid | 294.54 J/K/mol
332.45 K, Liquid | 294.83 J/K/mol
333.13 K, Liquid | 295.75 J/K/mol
333.8 K, Liquid | 295.68 J/K/mol
334.47 K, Liquid | 295.42 J/K/mol
336.41 K, Liquid | 298.11 J/K/mol
337.06 K, Liquid | 298.19 J/K/mol
337.7 K, Liquid | 298.22 J/K/mol
338.34 K, Liquid | 298.05 J/K/mol
338.57 K, Liquid | 298.82 J/K/mol
339.03 K, Liquid | 300.03 J/K/mol
339.2 K, Liquid | 299.1 J/K/mol
340.45 K, Liquid | 299.61 J/K/mol
341.07 K, Liquid | 299.94 J/K/mol
341.68 K, Liquid | 301.45 J/K/mol
342.29 K, Liquid | 300.21 J/K/mol
342.89 K, Liquid | 301.42 J/K/mol
343.49 K, Liquid | 302.55 J/K/mol
344.08 K, Liquid | 301.94 J/K/mol
344.67 K, Liquid | 303 J/K/mol
345.25 K, Liquid | 303.08 J/K/mol
346.41 K, Liquid | 304.11 J/K/mol
346.98 K, Liquid | 304.03 J/K/mol
347.55 K, Liquid | 304.56 J/K/mol
347.66 K, Liquid | 303.66 J/K/mol
348.78 K, Liquid | 306.1 J/K/mol
349.3 K, Liquid | 305.23 J/K/mol
349.88 K, Liquid | 305.3 J/K/mol
350.42 K, Liquid | 305.41 J/K/mol
350.96 K, Liquid | 306.68 J/K/mol
351.49 K, Liquid | 306.74 J/K/mol
352.02 K, Liquid | 307.44 J/K/mol
352.55 K, Liquid | 307.72 J/K/mol
353.07 K, Liquid | 307.31 J/K/mol
353.59 K, Liquid | 308.24 J/K/mol
354.1 K, Liquid | 307.67 J/K/mol
354.61 K, Liquid | 308.41 J/K/mol
355.12 K, Liquid | 308.12 J/K/mol
355.62 K, Liquid | 308.6 J/K/mol and 307.85 J/K/mol
356.11 K, Liquid | 307.9 J/K/mol
356.61 K, Liquid | 309.76 J/K/mol
357.09 K, Liquid | 308.25 J/K/mol
357.58 K, Liquid | 309.03 J/K/mol
358.05 K, Liquid | 309.85 J/K/mol
358.53 K, Liquid | 309.78 J/K/mol
359 K, Liquid | 309.73 J/K/mol
359.47 K, Liquid | 309.75 J/K/mol
359.53 K, Liquid | 309.84 J/K/mol
360.39 K, Liquid | 310.32 J/K/mol
360.84 K, Liquid | 311.4 J/K/mol
361.29 K, Liquid | 311.64 J/K/mol
361.74 K, Liquid | 310.99 J/K/mol
362.18 K, Liquid | 311.55 J/K/mol
362.52 K, Liquid | 311.51 J/K/mol
362.62 K, Liquid | 311.89 J/K/mol
362.96 K, Liquid | 311.52 J/K/mol
363.39 K, Liquid | 310.96 J/K/mol
365.49 K, Liquid | 313.17 J/K/mol
365.9 K, Liquid | 312.29 J/K/mol
366.3 K, Liquid | 313.49 J/K/mol
366.7 K, Liquid | 314.04 J/K/mol
367.1 K, Liquid | 313.11 J/K/mol
367.49 K, Liquid | 314.44 J/K/mol
367.88 K, Liquid | 314.05 J/K/mol
368.27 K, Liquid | 313.75 J/K/mol
368.45 K, Liquid | 313.66 J/K/mol
368.65 K, Liquid | 313.35 J/K/mol
368.82 K, Liquid | 312.67 J/K/mol
369.2 K, Liquid | 314.01 J/K/mol
369.57 K, Liquid | 314.85 J/K/mol
369.94 K, Liquid | 314.67 J/K/mol
370.3 K, Liquid | 314.64 J/K/mol
370.66 K, Liquid | 315.15 J/K/mol
371.02 K, Liquid | 314.85 J/K/mol
371.37 K, Liquid | 314.45 J/K/mol
371.71 K, Liquid | 316.2 J/K/mol
372.06 K, Liquid | 315.57 J/K/mol
372.39 K, Liquid | 315.1 J/K/mol
